In US20240398889A1, “NUTRACEUTICAL COMPOSITION AND METHOD FOR THE PROTECTION OF HUMAN ARTERIAL ENDOTHELIAL CELLS FROM ENDOTHELIAL CELL DYSFUNCTION” (K.L.R.M., LLC, priority 2022, published 2024):

How the values were obtained:
[1] = test system: human umbilical arterial endothelial cells (HUAEC); assay: cGMP expression by colorimetric ELISA in HUAEC; assay type: cell-based; details: 24 hours; for cGMP expression, change vs control: agent alone, IBMX 0.4 mM; for cGMP expression, change vs control / reduction of cGMP expression compared to COMP-4 incubation alone: L-NIL 2 μM; for reduction of cGMP expression compared to COMP-4 incubation alone: inhibitor co-incubated with COMP-4 0.69 mg/ml
Protocol: Cells were then scraped, homogenized by pipetting, and centrifuged at 1,000 g for 10 minutes. […] The enzymatic reaction product was determined by spectrophotometry at 405 nm absorbance and expressed as pmol/mg protein.

[2] = test system: human umbilical arterial endothelial cells (HUAEC); assay: Intracellular NO by Muse Nitric Oxide Kit (DAX-J2 Orange); assay type: cell-based; details: L-NAME added to COMP-4, 24 hours
Protocol: To corroborate the results obtained by flow cytometry, another system for detecting intracellular NO was used, the Muse® Nitric Oxide Kit (cat #MCH100112, Luminex, Austin, TX). HUAEC were seeded at 1.0×10^6 cells/ml in T25 flasks, treated with vehicle, COMP-4 with or without L-NAME, or LPS (positive control), and incubated for 24 hours. Cells were then suspended in assay buffer at 10^6 cells/ml. 100 μL of working solution consisting of the Muse Nitric Oxide Reagent (DAX-J2 Orange) was added to 10 μL of cells in suspension. Samples were incubated for 30 minutes in a 37° C. incubator with 5% CO2. After the incubation, 90 μL of the Muse 7-AAD working solution (dead cell marker) was added to each tube and incubated at room temperature for 5 min, protected from light. Intracellular NO was measured using the Guava® Muse Cell Analyzer, calibrated with negative and positive controls. Generated plots were divided into quadrants of nitric oxide positivity (+or −) and dead cells (+or −). From each plot, the lower-right quadrant of nitric oxide (+) and dead cell marker (−) was used to express intracellular NO results as the percent positive NO in live cells, which was compared between different treatments.

SMILES	cGMP expression, change vs control [1]	reduction of cGMP expression compared to COMP-4 incubation alone ([1]; L-NAME 3 μM) [%]	reduction of cGMP expression ([1]; inhibitor alone, L-NAME 3 μM, vs control) [%]	reduction of DAX-J2 Orange live cells compared to COMP-4 alone [2] [%]
CC(=N)NCCCC[C@H](N)C(=O)O.Cl [L-NIL, N^6-(1-Iminoethyl)-lysine, hydrochloride]	no inhibition of cGMP expression	44		
COC(=O)[C@@H](N)CCCNC(=N)N[N+](=O)[O-] [L-NAME, L-N^G-Nitro arginine methyl ester]		57	40	46
CC(C)Cn1c(=O)n(C)c(=O)c2[nH]cnc21 [IBMX, 3-isobutyl-1-methylxanthine]	increase in cGMP expression			
